# Assay results taken from publication PMC2740427 (The Journal of Biological Chemistry, 2009).
# Read-outs that look alike come from different tables or passages of the source.
# Key:
# [1] = molecular target: T1, MCT1 (Rattus norvegicus, UniProt P53987); type: cell-based; conditions: read-out: % inhibition (irreversible) at 0.2 mM
# T1 sequence (P53987 1-494): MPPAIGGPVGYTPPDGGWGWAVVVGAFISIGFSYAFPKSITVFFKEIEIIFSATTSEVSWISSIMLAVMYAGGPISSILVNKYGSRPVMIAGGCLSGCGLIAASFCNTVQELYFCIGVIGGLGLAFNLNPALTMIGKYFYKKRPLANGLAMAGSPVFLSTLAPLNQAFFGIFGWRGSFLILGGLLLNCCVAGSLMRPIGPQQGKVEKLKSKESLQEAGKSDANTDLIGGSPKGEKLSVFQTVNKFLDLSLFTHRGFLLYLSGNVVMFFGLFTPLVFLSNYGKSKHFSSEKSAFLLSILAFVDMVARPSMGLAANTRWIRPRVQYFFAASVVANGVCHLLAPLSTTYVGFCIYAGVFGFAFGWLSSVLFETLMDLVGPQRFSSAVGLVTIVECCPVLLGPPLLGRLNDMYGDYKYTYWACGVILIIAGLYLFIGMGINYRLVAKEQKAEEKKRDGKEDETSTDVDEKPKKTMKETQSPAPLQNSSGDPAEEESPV
# [2] = molecular target: T1, MCT1; test: inhibition of L-[…]lactate uptake in Xenopus oocytes, DIDS present in assay; type: cell-based; conditions: read-out: % inhibition (reversible) at 0.2 mM
smiles,measurement,setting,value
O=S(=O)(O)c1cc(N=C=S)ccc1/C=C/c1ccc(N=C=S)cc1S(=O)(=O)O [DIDS],inhibition at 200 µM,[1],~60%
same,inhibition at 200 µM,[2],~60%
